The record followed here is patent US20250136606A1, “MODULATORS OF TRPML, THEIR COMPOSITIONS AND METHODS OF USE” (Caraway Therapeutics, Inc., priority 2021, published 2025).

The structures appear in SMILES notation. Read-outs that look alike come from different tables or passages of the source.

Common to all, as to type: cell-based
One assay has as its target TRPML1 (Homo sapiens, UniProt Q9GZU1). As to the kind of experiment: Fluorescent TRPML1 assay (Fluo4-AM calcium fluorescence in doxycycline-induced HEK-293 Trex cells). An outline of the steps: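 hTRPML1 (mutated for cell-surface expression) in HEK-293 Trex, dox 0.5 ug/mL o/n; Fluo4-AM 1 uM ~60 min, then ~60 min de-esterification, dark; modified Ringer's + 10 mM Ca. Cmpds 20 uM–6 nM final, half-log, n=3. Ex480/Em540; % activity vs ctrls; EC50 by nonlinear regression.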

A further assay deals with T1, TRPML2 (Homo sapiens, UniProt Q8IZK6).
T1 construct: expressed in transfected cells
T1 sequence (Q8IZK6 1-566): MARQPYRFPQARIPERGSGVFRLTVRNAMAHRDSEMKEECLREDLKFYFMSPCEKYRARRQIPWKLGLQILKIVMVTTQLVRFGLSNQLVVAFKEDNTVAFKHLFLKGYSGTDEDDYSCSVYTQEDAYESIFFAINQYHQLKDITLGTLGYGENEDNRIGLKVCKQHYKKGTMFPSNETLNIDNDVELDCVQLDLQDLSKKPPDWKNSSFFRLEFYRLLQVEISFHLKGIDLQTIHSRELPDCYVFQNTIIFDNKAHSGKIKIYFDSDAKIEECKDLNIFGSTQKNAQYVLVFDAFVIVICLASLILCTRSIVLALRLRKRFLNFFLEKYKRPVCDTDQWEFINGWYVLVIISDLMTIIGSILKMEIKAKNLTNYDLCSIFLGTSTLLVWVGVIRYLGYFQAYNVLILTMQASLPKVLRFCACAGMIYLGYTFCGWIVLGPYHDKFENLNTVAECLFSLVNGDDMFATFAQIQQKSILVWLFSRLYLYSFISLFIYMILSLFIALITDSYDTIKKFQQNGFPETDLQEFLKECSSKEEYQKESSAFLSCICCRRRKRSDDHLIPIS
Briefly: Fluorescent TRPML2 assay (performed as for TRPML1, substituting the TRPML2 subtype). Put shortly: (§1)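 Compound series (final 6 nM-20 μM, half-log, triplicate) were added to Fluo4-AM-loaded HEK-293 Trex cells in 10 mM calcium Ringer's, expressing the human TRPML subtype after doxycycline 0.5 ug/mL induction. Percent activity versus positive/negative controls from 480/540 nm fluorescence; EC50 by non-linear regression.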

The target of another assay is T2, TRPML3 (Homo sapiens, UniProt Q8TDD5).
T2 construct: expressed in transfected cells
T2 sequence (Q8TDD5 1-553): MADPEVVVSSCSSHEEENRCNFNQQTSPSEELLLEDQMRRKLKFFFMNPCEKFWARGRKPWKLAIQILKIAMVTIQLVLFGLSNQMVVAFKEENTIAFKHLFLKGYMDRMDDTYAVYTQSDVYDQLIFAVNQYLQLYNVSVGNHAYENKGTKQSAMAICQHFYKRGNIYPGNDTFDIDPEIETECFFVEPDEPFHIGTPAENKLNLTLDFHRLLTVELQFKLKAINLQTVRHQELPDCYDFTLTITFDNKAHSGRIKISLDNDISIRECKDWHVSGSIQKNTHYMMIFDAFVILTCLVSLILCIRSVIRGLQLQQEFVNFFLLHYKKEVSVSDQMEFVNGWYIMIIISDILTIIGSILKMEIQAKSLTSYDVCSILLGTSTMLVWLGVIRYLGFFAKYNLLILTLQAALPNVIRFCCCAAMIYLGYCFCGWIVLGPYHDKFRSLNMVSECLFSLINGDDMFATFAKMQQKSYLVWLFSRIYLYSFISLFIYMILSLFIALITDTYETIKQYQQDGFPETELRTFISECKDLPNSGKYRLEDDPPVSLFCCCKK
Briefly: Fluorescent TRPML3 assay (performed as for TRPML1, substituting the TRPML3 subtype). Put shortly: as §1

TRPML1, sequence (Q9GZU1 whole entry L15A/L16A/L577A/L578A, form open): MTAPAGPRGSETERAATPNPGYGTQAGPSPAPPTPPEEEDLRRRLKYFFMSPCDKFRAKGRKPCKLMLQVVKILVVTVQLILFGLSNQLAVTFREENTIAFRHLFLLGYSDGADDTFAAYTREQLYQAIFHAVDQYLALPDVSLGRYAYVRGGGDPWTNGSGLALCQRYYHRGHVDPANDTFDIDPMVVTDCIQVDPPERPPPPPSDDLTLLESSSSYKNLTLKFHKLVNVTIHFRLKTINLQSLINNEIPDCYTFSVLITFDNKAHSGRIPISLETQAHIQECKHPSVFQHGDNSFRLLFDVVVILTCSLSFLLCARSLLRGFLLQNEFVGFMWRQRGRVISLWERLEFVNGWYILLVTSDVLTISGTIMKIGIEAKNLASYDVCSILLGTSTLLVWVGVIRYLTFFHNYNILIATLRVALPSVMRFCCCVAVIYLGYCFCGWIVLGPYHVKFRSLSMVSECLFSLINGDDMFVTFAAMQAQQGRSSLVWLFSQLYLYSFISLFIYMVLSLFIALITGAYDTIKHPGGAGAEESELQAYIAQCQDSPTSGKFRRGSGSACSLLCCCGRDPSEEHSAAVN

As usually defined, the EC50 is the concentration that produces a half-maximal response. Take `C[C@@H]1CN(c2ncnc3c2c(-c2ccccc2F)cn3-c2cnn(C)c2)[C@@H](C)CN1C(=O)OCC(F)(F)F` [Compound 254, 2,2,2-trifluoroethyl (2R,5S)-4-(5-(2-fluorophenyl)-7-(1-methyl-1H-pyrazol-4-yl)-7H-pyrrolo[2,3-d]pyrimidin-4-yl)-2,5-dimethylpiperazine-1-carboxylate]: the values for the half-maximal effective concentration (EC50) at TRPML1 (fluorescent calcium assay), on TRPML2 (fluorescent calcium assay) and at TRPML3 (fluorescent calcium assay) were 100 to 500 nM, over 2000 nM and 100 to 500 nM, respectively.
Turning to `C[C@H]1CN(C(=O)OC(C)(C)C)CCN1c1ncnc2c1c(C1CC1(F)F)cn2-c1cc(C#N)ccn1` (stereo partly drawn) [Compound 365, tert-butyl (3S)-4-(7-(4-cyanopyridin-2-yl)-5-(2,2-difluorocyclopropyl)-7H-pyrrolo[2,3-d]pyrimidin-4-yl)-3-methylpiperazine-1-carboxylate], the results for the EC50 on TRPML1 (fluorescent calcium assay), at TRPML2 (fluorescent calcium assay) and on TRPML3 (fluorescent calcium assay) were under 100 nM, 100 to 500 nM and under 100 nM, respectively.
Take `CC(C)(C)OC(=O)N1CCN(c2ncnc3c2c(C2CC2)cn3-c2ccc(Cl)cc2)CC1` [Compound 107, tert-butyl 4-(7-(4-chlorophenyl)-5-cyclopropyl-7H-pyrrolo[2,3-d]pyrimidin-4-yl) piperazine-1-carboxylate]: the half-maximal effective concentration (EC50) was under 100 nM at TRPML1 (fluorescent calcium assay), 100 to 500 nM at TRPML2 (fluorescent calcium assay) and under 100 nM on TRPML3 (fluorescent calcium assay).
Consider `C[C@H]1CN(C(=O)OC(C)(C)C)CCN1c1ncnc2c1c(C1CC1)cn2-c1cccc(C#N)c1` [Compound 200, tert-butyl (S)-4-(7-(3-cyanophenyl)-5-cyclopropyl-7H-pyrrolo[2,3-d]pyrimidin-4-yl)-3-methylpiperazine-1-carboxylate], for which the 50% effective concentration (EC50) at TRPML1 (fluorescent calcium assay) is under 100 nM; at TRPML2 (fluorescent calcium assay) it was 100 to 500 nM; on TRPML3 (fluorescent calcium assay), under 100 nM.
Consider `C[C@@H]1CN(c2ncnc3c2c(N2CCC2)cn3-c2cc(C#N)ccn2)[C@@H](C)CN1C(=O)OC(C)(C)C` [Compound 489, tert-butyl (2R,5S)-4-(5-(azetidin-1-yl)-7-(4-cyanopyridin-2-yl)-7H-pyrrolo[2,3-d]pyrimidin-4-yl)-2,5-dimethylpiperazine-1-carboxylate], for which the EC50 on TRPML1 (fluorescent calcium assay), at TRPML2 (fluorescent calcium assay) and at TRPML3 (fluorescent calcium assay) was under 100 nM each time.
In the case of `C=CCOC(=O)N(CCC)c1cn(-c2cc(Cl)ccn2)c2ncnc(N3C[C@@H](C)N(C(=O)OC(C)(C)C)C[C@@H]3C)c12` [Compound 500, tert-butyl (2R,5S)-4-(5-(((allyloxy)carbonyl)(propyl)amino)-7-(4-chloropyridin-2-yl)-7H-pyrrolo[2,3-d]pyrimidin-4-yl)-2,5-dimethylpiperazine-1-carboxylate], the EC50 on TRPML1 fell in the range of 100 to 500 nM; at TRPML2, 500 to 2000 nM; at TRPML3, 100 to 500 nM.
For `C[C@H]1CN(C(=O)OC(C)(C)C)CCN1c1ncnc2c1c(N1CCCC1)cn2C1CCCC(F)(F)C1` (stereo partly drawn) [Compound 401, tert-butyl (3S)-4-(7-(3,3-difluorocyclohexyl)-5-(pyrrolidin-1-yl)-7H-pyrrolo[2,3-d]pyrimidin-4-yl)-3-methylpiperazine-1-carboxylate], the concentration giving a half-maximal response (EC50) on TRPML1 (fluorescent calcium assay) was 100 to 500 nM; on TRPML2 (fluorescent calcium assay), over 2000 nM; at TRPML3 (fluorescent calcium assay), under 100 nM.
Turning to `CC1CN(C(=O)OC(C)(C)C)CCN1c1ncnc2c1c(C1CC1)cn2-c1cncc(Cl)c1` (stereo not drawn) [Compound 164, tert-butyl 4-(7-(5-chloropyridin-3-yl)-5-cyclopropyl-7H-pyrrolo[2,3-d]pyrimidin-4-yl)-3-methylpiperazine-1-carboxylate], the values for the 50% effective concentration (EC50) at TRPML1 (fluorescent calcium assay), on TRPML2 (fluorescent calcium assay) and on TRPML3 (fluorescent calcium assay) were under 100 nM, 100 to 500 nM and under 100 nM, respectively.
Turning to `C[C@H]1CN(C(=O)OC(C)(C)C)CCN1c1ncnc2c1c(N1CCCC1)cn2-c1cccc(Cl)c1` [Compound 210, tert-Butyl (S)-4-(7-(3-chlorophenyl)-5-(pyrrolidin-1-yl)-7H-pyrrolo[2,3-d]pyrimidin-4-yl)-3-methylpiperazine-1-carboxylate], the EC50 on TRPML1 (fluorescent calcium assay), at TRPML2 (fluorescent calcium assay) and at TRPML3 (fluorescent calcium assay) was under 100 nM throughout.
As to `C[C@@H]1CN(c2ncnc3c2c(C(F)(F)F)cn3-c2cc(Cl)ccn2)[C@@H](C)CN1C(=O)OC(C)(C)C` [Compound 506, tert-butyl (2R,5S)-4-(7-(4-chloropyridin-2-yl)-5-(trifluoromethyl)-7H-pyrrolo[2,3-d]pyrimidin-4-yl)-2,5-dimethylpiperazine-1-carboxylate], the EC50 on TRPML1 was under 100 nM; at TRPML2, 500 to 2000 nM; at TRPML3, under 100 nM.
On to `Cc1nccnc1-c1cn(-c2cccc(Cl)c2)c2ncnc(N3C[C@@H](C)N(C(=O)OC(C)(C)C)C[C@@H]3C)c12` [Compound 461, tert-butyl (2R,5S)-4-(7-(3-chlorophenyl)-5-(3-methylpyrazin-2-yl)-7H-pyrrolo[2,3-d]pyrimidin-4-yl)-2,5-dimethylpiperazine-1-carboxylate], for which the concentration giving a half-maximal response (EC50) on TRPML1 (fluorescent calcium assay) was under 100 nM; on TRPML2 (fluorescent calcium assay), 100 to 500 nM; at TRPML3 (fluorescent calcium assay), under 100 nM.
For `Cc1nccnc1-c1cn(-c2cc(F)cc(F)c2)c2ncnc(N3CCN(C(=O)OC(C)(C)CF)C[C@@H]3C)c12` [Compound 248, 1-fluoro-2-methylpropan-2-yl (S)-4-(7-(3,5-difluorophenyl)-5-(3-methylpyrazin-2-yl)-7H-pyrrolo[2,3-d]pyrimidin-4-yl)-3-methylpiperazine-1-carboxylate], the 50% effective concentration (EC50) at TRPML1 (fluorescent calcium assay) was 500 to 2000 nM; on TRPML2 (fluorescent calcium assay) it was over 2000 nM; at TRPML3 (fluorescent calcium assay), 500 to 2000 nM.
As for `C[C@H]1CN(C(=O)OC(C)(C)C)CCN1c1ncnc2c1c(-c1cccnc1)cn2-c1cccc(Cl)c1` [Compound 225, tert-butyl (S)-4-(7-(3-chlorophenyl)-5-(pyridin-3-yl)-7H-pyrrolo[2,3-d]pyrimidin-4-yl)-3-methylpiperazine-1-carboxylate], the figures for the EC50 on TRPML1 (fluorescent calcium assay), at TRPML2 (fluorescent calcium assay) and at TRPML3 (fluorescent calcium assay) were under 100 nM, 100 to 500 nM and under 100 nM, respectively.
Turning to `Cc1nccnc1-c1cn(-c2cc(F)cc(F)c2)c2ncnc(N3CCN(C(=O)OC(C)(C)CF)[C@H](C)C3)c12` [Compound 250, 1-fluoro-2-methylpropan-2-yl (R)-4-(7-(3,5-difluorophenyl)-5-(3-methylpyrazin-2-yl)-7H-pyrrolo[2,3-d]pyrimidin-4-yl)-2-methylpiperazine-1-carboxylate], the concentration for a half-maximal effect (EC50) at TRPML1 (fluorescent calcium assay) was 500 to 2000 nM; at TRPML2 (fluorescent calcium assay), over 2000 nM; on TRPML3 (fluorescent calcium assay) it was 100 to 500 nM.
For `C[C@@H]1CN(c2ncnc3c2c(N2CCC2)cn3-c2cccc(C#N)c2)CCN1C(=O)OC(C)(C)C` [Compound 341, tert-butyl (R)-4-(5-(azetidin-1-yl)-7-(3-cyanophenyl)-7H-pyrrolo[2,3-d]pyrimidin-4-yl)-2-methylpiperazine-1-carboxylate] the same measures were under 100 nM, under 100 nM and under 100 nM.
`CCN(CC)c1cn(-c2cc(C#N)ccn2)c2ncnc(N3CCN(C(=O)OC(C)(C)C)C[C@@H]3C)c12` [Compound 424, tert-butyl (S)-4-(7-(4-cyanopyridin-2-yl)-5-(diethylamino)-7H-pyrrolo[2,3-d]pyrimidin-4-yl)-3-methylpiperazine-1-carboxylate]: the half-maximal effective concentration (EC50) on TRPML1 (fluorescent calcium assay) was under 100 nM; at TRPML2 (fluorescent calcium assay), 100 to 500 nM; on TRPML3 (fluorescent calcium assay), under 100 nM.
For `C[C@@H]1CN(C(=O)OC(C)(C)C)CCN1c1ncnc2c1c(-c1ccccc1F)cn2-c1cc(C#N)ccn1` [Compound 389, tert-butyl (R)-4-(7-(4-cyanopyridin-2-yl)-5-(2-fluorophenyl)-7H-pyrrolo[2,3-d]pyrimidin-4-yl)-3-methylpiperazine-1-carboxylate], the results for the half-maximal effective concentration (EC50) at TRPML1 (fluorescent calcium assay), on TRPML2 (fluorescent calcium assay) and at TRPML3 (fluorescent calcium assay) were 500 to 2000 nM, 100 to 500 nM and under 100 nM, respectively.
For the compound `Cc1cn(-c2cc(F)ccn2)c2ncnc(N3CCN(C(=O)OC(C)(C)C)[C@H](C)C3)c12` [Compound 678, tert-butyl (R)-4-(7-(4-fluoropyridin-2-yl)-5-methyl-7H-pyrrolo[2,3-d]pyrimidin-4-yl)-2-methylpiperazine-1-carboxylate], the concentration for a half-maximal effect (EC50) on TRPML1, on TRPML2 and on TRPML3 was 100 to 500 nM each time.
